This passage reports IC50 and IC95 results from patent US20100093811A1 (priority 2007, published 2010).

Counter-ions that a name gives are not always drawn. Like-named read-outs stand apart in the source and are kept apart here.

In one test the target is wild-type HIV-1 protease (Human immunodeficiency virus type 1 group M subtype B, UniProt P04585). Description: Assay for inhibition of microbial expressed HIV protease. It is filed as biochemical. The method in brief: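 E. coli-expressed protease (5 pM) preincubated with inhibitor 30 min at room temperature in 50 mM sodium acetate pH 5.5, 100 mM NaCl, 0.1% BSA. Substrate Val-Ser-Gln-Asn-(betanapthyl)Ala-Pro-Ile-Val at 440 micromolar, 1 h at 30° C; acid-quenched, product peak area by C18 HPLC gives inhibition.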

Test [1] deals with acute HIV infection of T-lymphoid cells. Description: Assay for inhibition of HIV replication (spread assay). It is filed as cell-based, HIV-1. Conditions: Human immunodeficiency virus 1, T-lymphoid; read-out: Spread - IC95. How it is done: • Assay for Inhibition of HIV Replication
Assays for the inhibition of acute HIV infection of T-lymphoid cells were conducted in accordance with Vacca, J. P. et al., Proc. Natl. Acad. Sci. USA 1994, 91: 4096.

The mark [2] stands for this setting: wild-type HIV-1 protease expressed in E. coli, peptide substrate, pH 5.5, read-out: Enzyme Inhibition - IC50.

For the molecule `CCCN([C@H](CO)CCC[C@H](CC)NC(=O)[C@@H](NC(=O)OC)C(c1ccccc1)c1ccccc1)S(=O)(=O)c1ccc(CO)cc1` [Example J34, N-{(1S,5S)-1-ethyl-6-hydroxy-5-[{[4-(hydroxymethyl)phenyl]sulfonyl}(propyl)amino]hexyl}-Nα-(methoxycarbonyl)-β-phenyl-L-phenylalaninamide], at wild-type HIV-1 protease (setting [2]), the IC50 was 0.041 nM. Also, the IC95 in test [1] amounted to 20 nM.
With `CC[C@@H](CCC[C@@H](CO)N(C(C)C)S(=O)(=O)c1ccc(CO)cc1)NC(=O)[C@@H](NC)C(c1ccccc1)c1ccccc1` [Example J35, N-{(1S,5S)-1-ethyl-6-hydroxy-5-[{[4-(hydroxymethyl)phenyl]sulfonyl}(isopropyl)amino]hexyl}-Nα-methyl-β-phenyl-L-phenylalaninamide hydrochloride], inhibition against wild-type HIV-1 protease was half-maximal at 0.569 nM (IC50). The IC95 in test [1] came out at 25 nM.
As to `CC[C@@H](CCC[C@@H](CO)N(C(C)C)S(=O)(=O)c1ccc(CO)cc1)NC(=O)[C@@H](N)C(c1ccccc1)c1ccccc1` [Example J36, N-{(1S,5S)-1-ethyl-6-hydroxy-5-[{[4-(hydroxymethyl)phenyl]sulfonyl}(isopropyl)amino]hexyl}-β-phenyl-L-phenylalaninamide], the IC50 at wild-type HIV-1 protease (setting [2]) was determined as 0.098 nM. In addition, the concentration for an effect of 95% (IC95) in test [1] was 27 nM.
For `COC(=O)N[C@@H](Cc1ccccc1Br)C(=O)N[C@H](CCC[C@@H](CO)N(C(C)C)S(=O)(=O)c1ccc(CO)cc1)C1CC1` [Example J37, 2-bromo-N-{(1R,5S)-1-cyclopropyl-6-hydroxy-5-[{[4-(hydroxymethyl)phenyl]sulfonyl}(isopropyl)amino]hexyl}-Nβ-(methoxycarbonyl)-L-phenylalaninamide], the 50% inhibitory concentration (IC50) on wild-type HIV-1 protease (setting [2]) is 0.595 nM. For the same molecule, the IC95 in test [1] was determined as 37 nM.
For `CCCN([C@H](CO)CCC[C@H](CC)NC(=O)[C@@H](NC)C(c1ccccc1)c1ccccc1)S(=O)(=O)c1ccc(CO)cc1` [Example J38, N-{(1S,5S)-1-ethyl-6-hydroxy-5-[{[4-(hydroxymethyl)phenyl]sulfonyl}(propyl)amino]hexyl}-Nα-methyl-β-phenyl-L-phenylalaninamide], the IC50 at wild-type HIV-1 protease (setting [2]) came out at 0.098 nM. Moreover, the IC95 in test [1] worked out at 34 nM.
Regarding `CCCN([C@H](CO)CCC[C@H](CC)NC(=O)[C@@H](N)C(c1ccccc1)c1ccccc1)S(=O)(=O)c1ccc(CO)cc1` [Example J39, N-{(1S,5S)-1-ethyl-6-hydroxy-5-[{[4-(hydroxymethyl)phenyl]sulfonyl}(propyl)amino]hexyl}-β-phenyl-L-phenylalaninamide], at wild-type HIV-1 protease (setting [2]), the IC50 amounted to 0.016 nM. Also, the IC95 in test [1] came out at 39 nM.
In the case of `COC(=O)N[C@H](C(=O)N[C@H](CCC[C@@H](CO)N(C(C)C)S(=O)(=O)c1ccc(CO)cc1)C(F)(F)F)C(c1ccccc1)c1ccccc1` [Example J40, N-[(1R,5S)-6-hydroxy-5-[{[4-(hydroxymethyl)phenyl]sulfonyl}(isopropyl)amino]-1-(trifluoromethyl)hexyl]-Nα-(methoxycarbonyl)-β-phenyl-L-phenylalaninamide], on wild-type HIV-1 protease (setting [2]), the IC50 is 0.015 nM. Also, in test [1], the IC95 is 34 nM.
For `CCCN([C@H](CO)CCC[C@H](CC)NC(=O)[C@H](Cc1cccc2ccccc12)NC(=O)OC)S(=O)(=O)c1ccc(CO)cc1` [Example J41, methyl [(1S)-2-({(1S,5S)-1-ethyl-6-hydroxy-5-[{[4-(hydroxymethyl)phenyl]sulfonyl}(propyl)amino]hexyl}amino)-1-(1-naphthylmethyl)-2-oxoethyl]carbamate], the IC50 on wild-type HIV-1 protease (setting [2]) was 0.564 nM. Besides, the IC95 in test [1] worked out at 54 nM.
On the same counts, the results for `CCCN([C@H](CO)CCC[C@@H](NC(=O)[C@H](Cc1ccccc1Cl)NC(=O)OC)C(F)(F)F)S(=O)(=O)c1ccc(CO)cc1` [Example J43, 2-chloro-N-[(1R,5S)-6-hydroxy-5-[{[4-(hydroxymethyl)phenyl]sulfonyl}(propyl)amino]-1-(trifluoromethyl)hexyl]-Nα-(methoxycarbonyl)-L-phenylalaninamide] are 0.126 nM and 116 nM.
`CC[C@@H](CCC[C@@H](CO)N(CCC(C)C)S(=O)(=O)c1ccc(CO)cc1)NC(=O)[C@@H](NC(=O)OC)C(c1ccc(Cl)cc1)c1ccc(Cl)cc1` [Example J44, 4-chloro-β-(4-chlorophenyl)-N-{(1S,5S)-1-ethyl-6-hydroxy-5-[{[4-(hydroxymethyl)phenyl]sulfonyl}(3-methylbutyl)amino]hexyl}-Nα-(metboxycarbonyl)-L-phenylalaninamide]: at wild-type HIV-1 protease (setting [2]), the IC50 was determined as 0.081 nM. In addition, in test [1], the IC95 came out at 126 nM.
On the same counts, the results for `COC(=O)NC(Cc1cccc(Cl)c1Cl)C(=O)N[C@@H](C)CCC[C@@H](CO)N(C(C)C)S(=O)(=O)c1ccc(CO)cc1` (stereo partly drawn) [Example J45, 2,3-dichloro-N-{(1S,5S)-6-hydroxy-5-[{[4-(hydroxymethyl)phenyl]sulfonyl}(isopropyl)amino]-1-methylhexyl}-Nα-(methoxycarbonyl)phenylalaninamide] are 0.041 nM and 80 nM.
With `COC(=O)NC(C(=O)N[C@@H](C)CCC[C@@H](CO)N(C(C)C)S(=O)(=O)c1ccc(CO)cc1)C(c1cccc(F)c1)c1cccc(F)c1` (stereo partly drawn) [Example J46, 3-fluoro-β-(3-fluorophenyl)-N-{(1S,5S)-6-hydroxy-5-[{[4-(hydroxymethyl)phenyl]sulfonyl}(isopropyl)amino]-1-methylhexyl}-Nα-(methoxycarbonyl)phenylalaninamide], on wild-type HIV-1 protease (setting [2]), the IC50 stood at 0.01 nM. Further, the IC95 in test [1] was 18 nM.
For `COC(=O)N[C@H](C(=O)N[C@@H](C)CCC[C@@H](CO)N(C(C)C)S(=O)(=O)c1ccc(CO)cc1)C(c1ccccc1)c1ccccc1` [Example K1, N-{(1S,5S)-6-hydroxy-5-[{[4-(hydroxymethyl)phenyl]sulfonyl}(isopropyl)amino]-1-methylhexyl}-Nα-(methoxycarbonyl)-β-phenyl-L-phenylalaninamide], the IC50 at wild-type HIV-1 protease (setting [2]) is 0.018 nM. Also, the concentration for an effect of 95% (IC95) in test [1] is 13 nM.
On the same counts, the results for `CC[C@@H](CCC[C@@H](CO)N(C(C)C)S(=O)(=O)c1ccc(C(C)=O)cc1)NC(=O)[C@@H](NC(=O)OC)C(c1ccccc1)c1ccccc1` [Example K3, N-{(1S,5S)-5-[[(4-acetylphenyl)sulfonyl](isopropyl)amino]-1-ethyl-6-hydroxyhexyl}-Nα-(methoxycarbonyl)-β-phenyl-L-phenylalaninamide] are 0.929 nM and 112 nM.
Regarding `COC(=O)N[C@H](C(=O)N[C@@H](C)CCC[C@@H](CO)N(C(C)C)S(=O)(=O)c1ccc([C@H](C)O)cc1)C(c1ccccc1)c1ccccc1` [Example K4, N-{(1S,5S)-6-hydroxy-5-[({4-[(1S)-1-hydroxyethyl]phenyl}sulfonyl)(isopropyl)amino]-1-methylhexyl}-Nα-(methoxycarbonyl)-β-phenyl-L-phenylalaninamide], the half-maximal inhibitory concentration (IC50) on wild-type HIV-1 protease (setting [2]) stood at 0.015 nM. Besides, in test [1], the IC95 was determined as 19 nM.
With `COC(=O)N[C@H](C(=O)N[C@@H](C)CCC[C@@H](CO)N(C(C)C)S(=O)(=O)c1ccc(C(C)=O)cc1)C(c1ccccc1)c1ccccc1` [Example K5, N-{(1S,5S)-5-[[(4-acetylphenyl)sulfonyl](isopropyl)amino]-6-bydroxy-1-methylhexyl}-Nα-(methoxycarbonyl)-β-phenyl-L-phenylalaninamide], the IC50 on wild-type HIV-1 protease (setting [2]) was determined as 0.284 nM. Further, in test [1], the IC95 was 41 nM.
Turning to `COC(=O)N[C@H](C(=O)NC1(CCC[C@@H](CO)N(CCC(C)C)S(=O)(=O)c2ccc(N)cc2)CCCC1)C(c1ccccc1)c1ccccc1` [Example L1, N-(1-{(4S)-4-[[(4-aminophenyl)sulfonyl](3-methylbutyl)amino]-5-hydroxypentyl}cyclopentyl)-Nα-(methoxycarbonyl)-β-phenyl-L-phenylalaninamide], the IC50 at wild-type HIV-1 protease (setting [2]) is 0.37 nM. Besides, the IC95 in test [1] worked out at 274 nM.
In the case of `CC(C)N([C@H](CO)CCCC(C)(C)NC(=O)[C@@H](N)C(c1ccccc1)c1ccccc1)S(=O)(=O)c1ccc(N)cc1` [Example L2, N-{(5S)-5-[[(4-aminophenyl)sulfonyl](isopropyl)amino]-6-hydroxy-1,1-dimethylhexyl}-β-phenyl-L-phenylalaninamide], the IC50 at wild-type HIV-1 protease (setting [2]) was found to be 0.018 nM. Besides, the IC95 in test [1] is 23 nM.
`COC(=O)N[C@H](C(=O)NC1(CCCC(CO)N(CCC(C)C)S(=O)(=O)c2ccc(N)cc2)CCC1)C(c1ccccc1)c1ccccc1` (stereo partly drawn) [Example L3, N-(1-{4-[[(4-aminophenyl)sulfonyl](3-methylbutyl)amino]-5-hydroxypentyl}cyclobutyl)-Nα-(methoxycarbonyl)-β-phenyl-L-phenylalaninamide]: the IC50 on wild-type HIV-1 protease (setting [2]) was 0.234 nM. For the same molecule, in test [1], the IC95 turned out to be 471 nM.
Take `COC(=O)N[C@H](C(=O)NC(C)(C)CCC[C@@H](CO)N(CCC(C)C)S(=O)(=O)c1ccc(N)cc1)C(c1ccccc1)c1ccccc1` [Example L4, N-{(5S)-5-[[(4-aminophenyl)sulfonyl](3-methylbutyl)amino]-6-hydroxy-1,1-dimethylhexyl}-Nα-(methoxycarbonyl)-β-phenyl-L-phenylalaninamide]: the 50% inhibitory concentration (IC50) at wild-type HIV-1 protease (setting [2]) is 0.01 nM. Moreover, the IC95 in test [1] was 41 nM.
As to `COC(=O)N[C@H](C(=O)NC(C)(C)CCC[C@@H](CO)N(CC(C)C)S(=O)(=O)c1ccc(N)cc1)C(c1ccccc1)c1ccccc1` [Example L5, N-{(5S)-5-[[(4-aminophenyl)sulfonyl](isobutyl)amino]-6-hydroxy-1,1-dimethylhexyl}-Nα-(methoxycarbonyl)-β-phenyl-L-phenylalaninamide], the IC50 at wild-type HIV-1 protease (setting [2]) is 0.154 nM. In test [1], the IC95 stood at 185 nM.
